From a melting point compilation (Tetko et al.; mined from patent text by program, amines drawn as free bases though some values may be those of a salt)

melting point [°C] | SMILES
266 to 269 | CCOC(=O)c1cn(CC)c2nc(N3CCC(NC(C)=O)C3)c(F)cc2c1=O (centres undefined)
98 to 100 | O=C(N[C@@H]1C(=O)N[C@@H]1CO)OCc1ccccc1
232 to 234 | NC(=O)c1[nH]c2ccccc2c1-c1ccc(NC(=O)Nc2ccccc2)cc1
140 to 142 | CCC(CC)n1nnc2c(Nc3c(C)cc(C)cc3C)nc(C)cc21
131 | COc1ccc(-c2cc3ccccc3[nH]2)c(C)c1
268 to 270 | COc1ccc(-c2cc(O)n3nccc3n2)cc1OC
144 to 146 | CC(O)(CCN)c1ccc(-c2ccc(F)cc2)cc1 (centres undefined)
220 to 221 | Cc1c(C)c2c(c(C)c1NC(=O)CC(C)(C)C)C(c1ccc(C(C)C)c(O)c1)CO2 (centres undefined)
103 to 106 | CN(Cc1ccccc1)c1ncnc2c(N3CCOCC3)nc(N3CCC(NCc4ccccc4)CC3)nc12
146 to 148 | CC(=O)OCC(=O)C1=CCC2C3CCC4=CC(=O)CCC4(C)C3CCC12C (centres undefined)
163 to 165 | CC(C)(CC(O)(Cn1ccc(=O)c2sccc21)C(F)(F)F)c1cc(S(C)(=O)=O)cc2c1OCC2 (centres undefined)
> 350 | O=c1c2c[nH]c3ccccc3c-2nn1-c1nccs1

Second part, the compound before the results:

SMILES | melting point [°C]
Fc1ccc(-c2ccn(C3CN4CCC3CC4)c2-c2ccncc2)cc1 (centres undefined) | 229 to 230
CCC1(C)CN(c2c(F)c(N)c3c(=O)c(C(=O)O)cn(C4CC4)c3c2OC)CCC1NC (centres undefined) | 164 to 166
CNc1nc(N)nc2c1ncn2C1C=CC(CO)C1 (centres undefined) | 221 to 223
BrCc1ccc2ocnc2c1 | 90 to 93
COC(=NS(=O)(=O)c1nc(-c2ccccc2)ns1)C(C)C | 123 to 124
CN1CN(C(=O)c2c(F)cccc2F)C(=O)N(c2ccc(SC(F)(F)F)cc2F)C1 | 92 to 94
CC1CC(O)=NN1c1ccc(Cl)c(Cl)c1 (centres undefined) | 208 to 211
CCOC(=O)Cc1c(-c2ccc(C)cc2)nn2cccnc12 | 69 to 71.5
Cc1nc(NC(=O)c2cc(Cl)cc(Cl)c2)sc1C(=O)NCc1ccccc1 | 104 to 105
CN(C)CCOC(=O)c1ccc(CCN2CC=C(c3c[nH]c(-c4ccc(F)cc4)c3-c3ccncc3)CC2)cc1 | 178 to 181
COc1ccc(N2CCN(C(=O)CC3CCCc4ccccc43)CC2)cc1 (centres undefined) | 133 to 134
C#CCOc1nsc(-c2ccccc2)n1 | 66.9
O=C1c2cc3nnn(C4CC4)c(=O)c3cc2OC2CCCN12 (centres undefined) | 215 to 217
CCOC(=O)CC(=O)Cn1nc(CC)c(Oc2cc(Cl)cc(Cl)c2)c1CC | 82 to 84
O=C(c1ccccc1)c1cc(Cl)ccc1-n1ccnc1 | 106 to 108
CCOC(=O)C(C)Oc1ccc(Oc2cc3cc(Cl)ccc3nc2Cl)cc1 (centres undefined) | 56
C(=Cc1ccc(-c2nnc(-c3ccccc3)o2)cc1)c1ccc(-c2cnn(-c3ccccc3)n2)cc1 | 209 to 210
CC(C)c1cn(C)cc(-c2ccc(Cl)c(C(F)(F)F)c2)c1=O | 85 to 87
CSc1nccc(CC(=O)c2ccc(Cl)cc2Cl)n1 | 105 to 107
Cc1nc2c(N)nc3c(c2n1CCCCNC(=O)N1CCOCC1)CCCC3 | 134 to 135
COc1cccc(CN2Cc3cc(OC)c(O)cc3CC2C)c1 (centres undefined) | 100 to 105
COC(=O)c1ccc(Oc2ccc([N+](=O)[O-])cc2C(=O)OC)cc1 | 103 to 105
CNc1cc(Cl)cc(NCCOC)c1[N+](=O)[O-] | 93
COc1ccc(C2CCCCC2)cc1-c1csc(NC(=O)N2CCN(C[C@@H]3CCCN(CCC(=O)O)C3)CC2)n1 | 144
COc1ccc2c(c1)C(c1ccc(N)cc1)=NN(C(=O)C1CC1)C(C)=C2 | 214 to 216
CCn1cc(C(=O)O)c(=O)c2cc(F)c(N3CCN(S(=O)(=O)c4ccccc4)CC3)c(F)c21 | 234 to 235
COc1ccc(-c2nc3cnncc3[nH]2)c(OCC#N)c1 | 268
